Measurements published in publication PMC4965013, “Open Source Drug Discovery with the Malaria Box Compound Collection for Neglected Diseases and Beyond” (PLoS Pathogens, 2016).
Where two headings read alike, the source gives them in different places.

Legend:
P. falciparum 3D7 or K1 = assay: Asexual Blood Stage Imaging Assay (DAPI) V. Avery; type: cell-based
P. falciparum HB3 = assay: Stage-specificity / mitochondrial integrity image assay Ayong; type: cell-based; conditions: 10µM
P. falciparum Dd2 = assay: Malaria Sybr Green I Fluorescence assay Dd2 Horrocks; type: cell-based; conditions: Plasmodium falciparum, DD2, 48 h; read-out: P. falciparum Dd2 asexual blood stage EC50 Horrocks
Protocol: Column S: Horrocks group (data presented first in this paper). Asexual Dd2 inhibition of growth (IC50s): IC50 for the Dd2 clone of Plasmodium falciparum were determined using the Malaria Sybr Green I Fluorescence assay. Drug assays were initiated using a 2% trophozoite stage parasitaemia and 2% hematocrit and fluorescence measured after 48 h as fully described in Hasenkamp et al.[53]. Log dose-response curves were plotted in GraphPad Prism (v5.0). The controls for Dd2 using our 48hr Sybr Green I assay were (rounded to nearest nM): Chloroquine 209nM, Mefloquine 11nM, Quinine 246nM, Dihydroartemisinin 4nM, Artemether 10nM, Atovaquone 3nM.

[1] = tested on: P. falciparum 3D7 trophozoites; assay: Metabolomic fingerprint profiling LC-MS; type: cell-based, Plasmodium falciparum; set-up: UDP-D-glucose / ADP-D-glucose: unit not given here
P. falciparum = assay: EC50 listed in S2 Table Metabolomics (used to set the concentration tested); type: cell-based; conditions: Plasmodium falciparum; EC50 used for Factor_XEC50 in metabolomics; read-out: EC50_nM
[2] = tested on: Naegleria fowleri trophozoites; assay: Naegleria fowleri CellTiter-Glo; type: cell-based
From the text: Columns CY-CZ: Kyle group (data presented first in this paper). Naegleria fowleri trophozoite growth inhibition. Methods: The CellTiter-Glo (CTG) 2.0 luminescent assay is a quantitative assay that assesses the presence of cellular ATP in lysed cells, displaying an output in Relative Light Units (RLU’s). This was previously standardised, for the growth and development of Naegleria fowleri trophozoites in-vitro to assess drug susceptibility on this parasite. […] These included two drug-like molecules MMV665807 (St. Jude’s Children’s Hospital) and MMV665979 (The Genomics Institute of the Novartis Research Foundation - GNF) and two Probe-like molecules, MMV006203 (GNF) & MMV006172 (GNF; GlaxoSmithKline - GSK). […] However, these Malaria Box compounds were all toxic to zebrafish and mammalian cells.

[3] = tested on: HIV-1 JR-FL or HIV-1 NL4-3 pseudoviruses; assay: HIV-1 pseudovirus infection luciferase; type: cell-based; conditions: 10µM
Protocol: (§1) Columns FK-GB, Moore group (data presented first in this paper). HIV and HIV-producing cell lines, toxicity and viral suppression. […] MMV compounds were incubated with HIV-1 JR-FL or HIV-1 NL4-3 pseudoviruses and U87-CD4-CCR5 or U87-CD4-CXCR4 cells (obtained through the NIH AIDS Reagent Program, Division of AIDS, NIAID, NIH: U87 CD4+CCR5+ Cells from Dr. HongKui Deng and Dr. Dan R. Littman) respectively for 3 days. Cells were assayed for infection by luciferase production (Bright-Glo Luciferase Substrate, Promega) and cell viability by MTT assay. […] MMV compounds were next incubated with HIV-1 JR-FL or HIV-1 NL4-3 viruses and U87-CD4-CCR5 or U87-CD4-CXCR4 cells respectively for 7 days. Cell supernatants were assayed for viral production by p24 ELISA [153] and cell viability by MTT assay. […] DMSO (5%) was completely toxic to all cells (based on visual inspection) and served as the positive control for MTT assays.

[4] = tested on: HIV-1 JR-FL or HIV-1 NL4-3 viruses; assay: HIV-1 viral production p24 ELISA; type: cell-based; conditions: 10µM
Protocol: as §1

Chromera velia = Chromera velia flagellation motility assay
[5] = tested on: P. falciparum NF54 GFP-Pfs16 gametocytes stage I-III; conditions: ref [71]; cited from earlier work
[6] = tested on: P. falciparum NF54 GFP-Pfs16 gametocytes stage IV-V; conditions: ref [71]; cited from earlier work
[7] = Plasmodium falciparum, read-out: P. falciparum 3D7 asexual blood stage EC50 (Image) V. Avery
[8] = Plasmodium falciparum, read-out: P. falciparum K1 asexual blood stage EC50 (Image) V. Avery
[9] = metabolite level change after treatment

CC[C@H](C)[C@H](NC(=O)[C@H]([C@@H](C)CC)N(C)C(C)=O)C(=O)N[C@H](C(=O)N[C@@H](CC(C)C)C(=O)[C@@]1(C)CO1)[C@@H](C)O [epoxomicin]
EC50 (P. falciparum 3D7 or K1; 3D7, read-out: P. falciparum 3D7 asexual blood stage EC50 (Image) V. Avery): 1 nM
EC50 (P. falciparum 3D7 or K1; K1, read-out: P. falciparum K1 asexual blood stage EC50 (Image) V. Avery): 2 nM

CC(=O)N[C@@H]1[C@@H](O)[C@H](O)[C@@H](CO)O[C@H]1O [GlcNAC, N-acetylglucosamine, reference compound]
Effects on asexual life cycle progression (treatment at ER, LR, T, S; merozoites; mitochondrial integrity) (P. falciparum HB3): LR-o-o-o-X-o

COc1ccc2nc3cc(Cl)ccc3c(Nc3cc(CN4CCCC4)c(O)c(CN4CCCC4)c3)c2n1 [pyronaridine]
EC50 (P. falciparum 3D7 or K1; [7]): 3 nM
EC50 (P. falciparum 3D7 or K1; [8]): 5 nM

OC(c1cc(C(F)(F)F)nc2c(C(F)(F)F)cccc12)C1CCCCN1 (stereo not drawn) [Mefloquine]
EC50 (P. falciparum Dd2): 11 nM

O=C1C(O)=C([C@H]2CC[C@H](c3ccc(Cl)cc3)CC2)C(=O)c2ccccc21 [Atovaquone, reference compound]
EC50 (P. falciparum Dd2): 3 nM
Acetyllysine ([1]; S2 Table Metabolomics, metabolite Acetyllysine): -0.04735
N-acetyl-L-ornithine ([1]; S2 Table Metabolomics, metabolite N-acetyl-L-ornithine): -0.04174
N-carbamoyl-L-aspartate ([1]; S2 Table Metabolomics, metabolite N-carbamoyl-L-aspartate): 3.574
NADPH ([1]; S2 Table Metabolomics, metabolite NADPH): 0.3866
dAMP ([1]; S2 Table Metabolomics, metabolite dAMP): -0.09487
dCMP ([1]; S2 Table Metabolomics, metabolite dCMP): 0.3344
dTDP ([1]; S2 Table Metabolomics, metabolite dTDP): -0.7104
dTMP ([1]; S2 Table Metabolomics, metabolite dTMP): -0.4179
dTTP ([1]; S2 Table Metabolomics, metabolite dTTP): -0.8198
dihydroorotate ([1]; S2 Table Metabolomics, metabolite dihydroorotate): 4.214
orotate ([1]; S2 Table Metabolomics, metabolite orotate): -0.07211
DLH ([1]; S2 Table Metabolomics, peptide DLH): -0.06109
DLS/SDL/SID ([1]; S2 Table Metabolomics, peptide DLS/SDL/SID): -0.04893
PD ([1]; S2 Table Metabolomics, peptide PD): 0.1235
PEE ([1]; S2 Table Metabolomics, peptide PEE): -0.1722
PVNF ([1]; S2 Table Metabolomics, peptide PVNF): -0.41
3-phosphoglycerate ([1]; metabolite 3-phosphoglycerate, S2 Table Metabolomics): 0.03739
ADP-D-glucose ([1]; metabolite ADP-D-glucose, S2 Table Metabolomics): 0.08423
ATP ([1]; metabolite ATP, S2 Table Metabolomics): 0.06271
CDP ([1]; metabolite CDP, S2 Table Metabolomics, change in metabolite level after compound treatment): -0.5138
D-sedoheptulose-1/7-phosphate ([1]; metabolite D-sedoheptulose-1/7-phosphate, S2 Table Metabolomics, change in metabolite level after compound treatment): 0.1418
FAD ([1]; metabolite FAD, S2 Table Metabolomics): 0.1027
GMP ([1]; metabolite GMP, S2 Table Metabolomics, change in metabolite level after compound treatment): 0.1184
NAD+ ([1]; metabolite NAD+, S2 Table Metabolomics): 0.1854
NADP+ ([1]; metabolite NADP+, S2 Table Metabolomics): 0.1184
Octoluse Bisphosphate ([1]; metabolite Octoluse Bisphosphate, S2 Table Metabolomics, change in metabolite level after compound treatment): -0.059
Pyroglutamic acid ([1]; metabolite Pyroglutamic acid, S2 Table Metabolomics): 0.08924
UDP-D-glucose ([1]; metabolite UDP-D-glucose, S2 Table Metabolomics): 0.001015
UDP-D-glucuronate ([1]; metabolite UDP-D-glucuronate, S2 Table Metabolomics): -0.0616
UDP-N-acetyl-glucosamine ([1]; metabolite UDP-N-acetyl-glucosamine, S2 Table Metabolomics): -0.1593
UDP ([1]; metabolite UDP, S2 Table Metabolomics, change in metabolite level after compound treatment): -0.7439
UMP ([1]; metabolite UMP, S2 Table Metabolomics, change in metabolite level after compound treatment): -0.8555
UTP ([1]; metabolite UTP, S2 Table Metabolomics, change in metabolite level after compound treatment): -1.1527
a-ketoglutarate ([1]; metabolite a-ketoglutarate, S2 Table Metabolomics): -0.0182
citrate/isocitrate ([1]; metabolite citrate/isocitrate, S2 Table Metabolomics, change in metabolite level after compound treatment): -0.0966
cytidine ([1]; metabolite cytidine, S2 Table Metabolomics): 0.2964
dATP ([1]; metabolite dATP, S2 Table Metabolomics): 0.2506
dGMP/AMP ([1]; metabolite dGMP/AMP, S2 Table Metabolomics, change in metabolite level after compound treatment): -0.116
fumarate ([1]; metabolite fumarate, S2 Table Metabolomics, change in metabolite level after compound treatment): 0.379
glucose-1/6-phosphate ([1]; metabolite glucose-1/6-phosphate, S2 Table Metabolomics, change in metabolite level after compound treatment): 0.3695
glycerate ([1]; metabolite glycerate, S2 Table Metabolomics, change in metabolite level after compound treatment): 0.1345
guanine ([1]; metabolite guanine, S2 Table Metabolomics, change in metabolite level after compound treatment): 0.3762
guanosine ([1]; metabolite guanosine, S2 Table Metabolomics, change in metabolite level after compound treatment): 0.6121
hypoxanthine ([1]; metabolite hypoxanthine, S2 Table Metabolomics): 0.2162
indole ([1]; metabolite indole, S2 Table Metabolomics): 0.1728
inosine ([1]; metabolite inosine, S2 Table Metabolomics, change in metabolite level after compound treatment): 0.1672
2_3-Diphosphoglyceric acid [1, 9]: -0.09802
4-phosphopantothenate [1, 9]: -0.2334
6-phospho-D-gluconate [1, 9]: 0.01237
FMN [1, 9]: -0.003621
IMP [1, 9]: 0.3101
Pyrophosphate [1, 9]: -0.1571
Sedoheptoluse bisphosphate [1, 9]: 0.01404
cyclic-AMP [1, 9]: -0.03093
glutathione disulfide [1, 9]: 0.00323
lactate [1, 9]: 0.02673
myo-inositol [1, 9]: 0.3272
nicotinate ([1]; metabolite nicotinate, S2 Table Metabolomics): 0.1461
ornithine ([1]; metabolite ornithine, S2 Table Metabolomics): 0.1076
phosphoenolpyruvate ([1]; metabolite phosphoenolpyruvate, S2 Table Metabolomics): 0.02037
pyruvate ([1]; metabolite pyruvate, S2 Table Metabolomics, change in metabolite level after compound treatment): -0.07747
ribose-phosphate ([1]; metabolite ribose-phosphate, S2 Table Metabolomics): 0.1578
sarcosine/alanine ([1]; metabolite sarcosine/alanine, S2 Table Metabolomics, change in metabolite level after compound treatment): -0.1241
sn-glycerol-3-phosphate ([1]; metabolite sn-glycerol-3-phosphate, S2 Table Metabolomics): 0.1524
succinate/methylmalonic acid ([1]; metabolite succinate/methylmalonic acid, S2 Table Metabolomics, change in metabolite level after compound treatment): -0.1814
uridine ([1]; metabolite uridine, S2 Table Metabolomics, change in metabolite level after compound treatment): -0.1824
xanthosine ([1]; metabolite xanthosine, S2 Table Metabolomics, change in metabolite level after compound treatment): 0.05904
EC50 (P. falciparum): 1 nM

FC(F)(F)c1cccc(CNC2CCN(CCc3ccccc3)CC2)c1 [MMV665979]
Naegleria fowleri hit in words [2]: outstanding hit
EC50 ([2]; Naegleria fowleri): 190 nM

Cc1cn([C@H]2C[C@H](N=[N+]=[N-])[C@@H](CO)O2)c(=O)[nH]c1=O [AZT, reference compound]
viral infection by luciferase, positive control [3]: completely blocked viral infection
viral infection by p24 production, positive control [4]: completely blocked viral infection

Oc1cc(Cl)ccc1Oc1ccc(Cl)cc1Cl [triclosan, reference compound]
C. velia flagellation score (Chromera velia; 0.1 µM): +
C. velia flagellation score (Chromera velia; 1µM): 0

C=C[C@H]1C[N@@]2CC[C@H]1C[C@H]2[C@H](O)c1ccnc2ccc(OC)cc12 [Quinine]
EC50 (P. falciparum Dd2): 246 nM

CCc1nc(N)nc(N)c1-c1ccc(Cl)cc1 [pyrimethamine, reference compound]
EC50 (P. falciparum 3D7 or K1; [7]): 2 nM
EC50 (P. falciparum 3D7 or K1; [8]): 7200 nM
early gametocyte imaging, no activity at [5]: > 40 µM
late gametocyte imaging, no activity at [6]: > 40 µM

CO[C@H]1O[C@@H]2O[C@@]3(C)CC[C@H]4[C@H](C)CC[C@@H]([C@H]1C)[C@@]24OO3 [Artemether]
EC50 (P. falciparum Dd2): 10 nM
